Laboratory results from patent publication US20140213446A1, “HERBICIDAL COMPOSITIONS AND METHODS USING COMBINATIONS OF 4-AMINO-3-CHLORO-6-(4-CHLORO-2-FLUORO-3-METHOXYPHENYL)PYRIDINE-2-CARBOXYLIC ACID OR A DERIVATIVE THEREOF AND AN ARYLOXYPHENOXY PROPIONATE ACCASE INHIBITOR HERBICIDE” (DOW AGROSCIENCES LLC, priority 2013, published 2014).

Legend:
Experiment in all cases: Postemergent herbicidal activity, greenhouse
Assay type in all cases: in vivo
[1] = system: DIGSA Digitaria sanguinalis (L.) Scop. (large crabgrass)
Description: (§1) Evaluation of Postemergent Herbicidal Activity. Seeds or nutlets of the desired test plant species were planted in Sun Gro Metro-Mix® 360 planting mixture, which typically has a pH of 6.0 to 6.8 and an organic matter content of about 30 percent, in plastic pots with a surface area of 64 square centimeters (cm^2). When required to ensure good germination and healthy plants, a fungicide treatment and/or other chemical or physical treatment was applied. The plants were grown for 7-21 days (d) in a greenhouse with an approximate 15 hour (h) photoperiod which was maintained at about 23-29° C. during the day and 22-28° C. during the night. Nutrients and water were added on a regular basis and supplemental lighting was provided with overhead metal halide 1000-Watt lamps as necessary. The plants were employed for testing when they reached the first or second true leaf stage.
(§2) A weighed amount, determined by the highest rate to be tested, of each test compound was placed in a 25 milliliter (mL) glass vial and was dissolved in 4 mL of a 97:3 volume per volume (v/v) mixture of acetone and dimethyl sulfoxide (DMSO) to obtain concentrated stock solutions. […] The concentrated stock solutions obtained were diluted with 20 mL of an aqueous mixture containing acetone, water, isopropyl alcohol, DMSO, Atplus 411F crop oil concentrate, and Triton® X-155 surfactant in a 48.5:39:10:1.5:1.0:0.02 v/v ratio to obtain spray solutions containing the highest application rates. Additional application rates were obtained by serial dilution of 12 mL of the high rate solution into a solution containing 2 mL of a 97:3 v/v mixture of acetone and DMSO and 10 mL of an aqueous mixture containing acetone, water, isopropyl alcohol, DMSO, Atplus 411F crop oil concentrate, and Triton X-155 surfactant in a 48.5:39:10:1.5:1.0:0.02 v/v ratio to obtain ½X, ¼X, ⅛X and 1/16X rates of the high rate. Compound requirements are based upon a 12 mL application volume at a rate of 187 liters per hectare (L/ha). Formulated compounds were applied to the plant material with an overhead Mandel track sprayer equipped with 8002E nozzles calibrated to deliver 187 L/ha over an application area of 0.503 square meters (m^2) at a spray height of 18 inches ([…]) above the average plant canopy height. Control plants were sprayed in the same manner with the solvent blank.
(§3) Treatments consisted of the methyl ester of 4-amino-3-chloro-6-(4-chloro-2-fluoro-3-methoxyphenyl)pyridine-2-carboxylic acid (Cmpd 1) as technical grade material and fluazifop-P-butyl (Fusilade® DX), haloxyfop-P-methyl (GALLANT® super), and quizalofop-P-ethyl (Assure® II) alone and in combination. The form of compound of formula (I) and fluazifop-P-butyl, haloxyfop-P-methyl, and quizalofop-P-ethyl were applied on an acid equivalent basis.
(§4) The treated plants and control plants were placed in a greenhouse as described above and watered by subirrigation to prevent wash-off of the test compounds. After 14 d, the condition of the test plants as compared with that of the untreated plants was determined visually and scored on a scale of 0 to 100 percent where 0 corresponds to no injury and 100 corresponds to complete kill.
(§5) Results of testing mixtures in accordance with this disclosure and of the components of the mixtures separately against various common weeds in greenhouse trials are reported in the following tables. The reported values are of percent (%) control or percent (%) injury, visually rated. Colby's equation was used to determine the herbicidal effects expected from the mixtures (Colby, S. R. Calculation of the synergistic and antagonistic response of herbicide combinations. Weeds 1967, 15, 20-22.).
(§6) More specifically, the following equation was used to calculate the expected activity of mixtures containing two active ingredients, A and B:
(§7) A=observed efficacy of active ingredient A at the same concentration as used in the mixture; B=observed efficacy of active ingredient B at the same concentration as used in the mixture. […]

[2] = system: CHEAL Chenopodium album L. (common lambsquarters)
Description: as §1, §2, §3, §4, §5, §6, §7

[3] = system: EPHHL Euphorbia heterophylla L. (wild poinsettia)
Description: as §1, §2, §3, §4, §5, §6, §7

[4] = system: GLXMA Glycine max (soybean)
Description: as §1, §2, §3, §4, §5, §6, §7

[5] = system: SORVU Sorghum vulgare (common sorghum)
Description: as §1, §2, §3, §4, §5, §6, §7

[6] = system: HELAN Helianthus annuus L. (common sunflower)
Description: as §1, §2, §3, §4, §5, §6, §7

[7] = system: IPOHE Ipomoea hederacea (L.) Jacq. (ivyleaf momingglory)
Description: as §1, §2, §3, §4, §5, §6, §7

[8] = system: STEME Stellaria media (L.) Vill. (common chickweed)
Description: as §1, §2, §3, §4, §5, §6, §7

[9] = system: CIRAR Cirsium arvense (L.) Scop. (Canada thistle)
Description: as §1, §2, §3, §4, §5, §6, §7

[10] = system: BRSNW Brassica napus (winter oilseed rape)
Description: as §1, §2, §3, §4, §5, §6, §7

[11] = system: SETFA Setaria faberi Herrm. (giant foxtail)
Description: as §1, §2, §3, §4, §5, §6, §7

[12] = system: AVEFA Avena fatua L. (wild oat)
Description: as §1, §2, §3, §4, §5, §6, §7

[13] = system: VIOTR Viola tricolor L. (wild violet)
Description: as §1, §2, §3, §4, §5, §6, §7

[14] = system: CYPES Cyperus esculentus L. (yellow nutsedge)
Description: as §1, §2, §3, §4, §5, §6, §7

[15] = system: AMARE Amaranthus retroflexus L. (redroot pigweed)
Description: as §1, §2, §3, §4, §5, §6, §7

[16] = system: ABUTH Abutilon theophrasti Medik. (velvetleaf)
Description: as §1, §2, §3, §4, §5, §6, §7

Measured: Visual Growth Reduction (%) 14 DAA Obs

CCCCOC(=O)[C@@H](C)Oc1ccc(Oc2ccc(C(F)(F)F)cn2)cc1 [Fluazifop-P, fluazifop-P-butyl]
80%: [1]; Fluazifop-P 105 g ae/ha | [11]; Fluazifop-P 52.5 g ae/ha | [11]; Fluazifop-P 105 g ae/ha
70%: [1]; Fluazifop-P 52.5 g ae/ha | [5]; Fluazifop-P 52.5 g ae/ha | [12]; Fluazifop-P 210 g ae/ha
85%: [1]; Fluazifop-P 210 g ae/ha
0%: [2]; Fluazifop-P 52.5 g ae/ha | [2]; Fluazifop-P 105 g ae/ha | [2]; Fluazifop-P 210 g ae/ha | [3]; Fluazifop-P 52.5 g ae/ha | [3]; Fluazifop-P 105 g ae/ha | [3]; Fluazifop-P 210 g ae/ha | [4]; Fluazifop-P 52.5 g ae/ha | [4]; Fluazifop-P 105 g ae/ha | [4]; Fluazifop-P 210 g ae/ha | [6]; Fluazifop-P 52.5 g ae/ha | [6]; Fluazifop-P 105 g ae/ha | [6]; Fluazifop-P 210 g ae/ha | [7]; Fluazifop-P 52.5 g ae/ha | [7]; Fluazifop-P 105 g ae/ha | [7]; Fluazifop-P 210 g ae/ha | [8]; Fluazifop-P 52.5 g ae/ha | [8]; Fluazifop-P 105 g ae/ha | [8]; Fluazifop-P 210 g ae/ha | [9]; Fluazifop-P 52.5 g ae/ha | [9]; Fluazifop-P 105 g ae/ha | [9]; Fluazifop-P 210 g ae/ha | [10]; Fluazifop-P 52.5 g ae/ha | [10]; Fluazifop-P 105 g ae/ha | [10]; Fluazifop-P 210 g ae/ha | [12]; Fluazifop-P 52.5 g ae/ha | [12]; Fluazifop-P 105 g ae/ha | [13]; Fluazifop-P 52.5 g ae/ha | [13]; Fluazifop-P 105 g ae/ha | [13]; Fluazifop-P 210 g ae/ha | [14]; Fluazifop-P 52.5 g ae/ha | [14]; Fluazifop-P 105 g ae/ha | [14]; Fluazifop-P 210 g ae/ha | [15]; Fluazifop-P 52.5 g ae/ha | [15]; Fluazifop-P 105 g ae/ha | [15]; Fluazifop-P 210 g ae/ha | [16]; Fluazifop-P 52.5 g ae/ha | [16]; Fluazifop-P 105 g ae/ha | [16]; Fluazifop-P 210 g ae/ha
100%: [5]; Fluazifop-P 210 g ae/ha
90%: [5]; Fluazifop-P 105 g ae/ha | [11]; Fluazifop-P 210 g ae/ha

COC(=O)[C@@H](C)Oc1ccc(Oc2ncc(C(F)(F)F)cc2Cl)cc1 [Haloxyfop-P, haloxyfop-P-methyl]
0%: [2]; Haloxyfop-P 35 g ae/ha | [2]; Haloxyfop-P 70 g ae/ha | [2]; Haloxyfop-P 140 g ae/ha | [7]; Haloxyfop-P 35 g ae/ha | [7]; Haloxyfop-P 70 g ae/ha | [7]; Haloxyfop-P 140 g ae/ha | [8]; Haloxyfop-P 35 g ae/ha | [8]; Haloxyfop-P 70 g ae/ha | [8]; Haloxyfop-P 140 g ae/ha | [10]; Haloxyfop-P 35 g ae/ha | [10]; Haloxyfop-P 70 g ae/ha | [10]; Haloxyfop-P 140 g ae/ha | [13]; Haloxyfop-P 35 g ae/ha | [13]; Haloxyfop-P 70 g ae/ha | [13]; Haloxyfop-P 140 g ae/ha | [14]; Haloxyfop-P 35 g ae/ha | [14]; Haloxyfop-P 70 g ae/ha | [14]; Haloxyfop-P 140 g ae/ha | [15]; Haloxyfop-P 35 g ae/ha | [15]; Haloxyfop-P 70 g ae/ha | [15]; Haloxyfop-P 140 g ae/ha
